In US10222381B2, “Water-soluble peptide fluorescence material” (NATIONAL CHIAO TUNG UNIVERSITY, priority 2015, dated 2019):
Non-standard residues stand in square brackets, D forms with d. Residues, ends and D or L forms follow the SMILES beside them. ξ: configuration not given here. *: point of attachment. X2 = O=C1c2cccc3c(N4CCCCC4)ccc(c23)C(=O)N1CC(=O)*; ξE = NC(CCC(=O)O)C(=O)O

Experiment: Fluorescence intensity and emission wavelength at different pH values
Type: physicochemical
Conditions: for color of fluorescence / emission peak: pH 5; for fluorescence intensity: pH 10 to 6; for pH value of the highest fluorescence intensity: pH 10 to 3 tested
Excerpt: In Experimental Examples 210, 220, 230, 240, 250, 260, 270 and 280, the above water-soluble peptide fluorescence material is respectively placed in environments having a pH value of 10, 9, 8, 7, 6, 5, 4 and 3 for testing. In Experimental Examples 210 to 230, the water-soluble peptide fluorescence material is respectively placed in environments having the pH value of 10, 9 and 8.
Continuing in FIG. 5, which illustrates a fluorescence intensity and an emission wavelength of the water-soluble peptide fluorescence material of formula (III-10) at different pH values. In Experimental Examples 510, 520, 530, 540, 550, 560, 570 and 580, the water-soluble peptide fluorescence material of formula (III-10) is respectively placed in environments having a pH value of 10, 9, 8, 7, 6, 5, 4 and 3 for testing. In Experimental Examples 510 to 560, the water-soluble peptide fluorescence material is placed in environments having the pH value of 10 to 5, and two emission peaks are shown in FIG. 5. […] Then, the pH value is further decrease to 4 (Experimental Example 570) and 3 (Experimental Example 580), and only the emission peak at about 400 nm is remained, so the observed fluorescence has a color of purple in Experimental Examples 570 and 580. Therefore, the water-soluble peptide fluorescence material of formula (III-10) is able to detect and mark locations of acidic cells by change of the color.
Continuing in FIG. 7, which illustrates a fluorescence intensity and an emission wavelength of the water-soluble peptide fluorescence material of formula (III-21) at different pH values. In Experimental Examples 710, 720, 730, 740, 750, 760, 770 and 780, the water-soluble peptide fluorescence material of formula (III-21) is respectively placed in environments having a pH value of 10, 9, 8, 7, 6, 5, 4 and 3 for testing. In Experimental Examples 710 to 750, the water-soluble peptide fluorescence material is placed in environments having the pH value of 10 to 6. […] However, the fluorescence intensity of Experimental Examples 780 is decreased when the pH value is decreased from 4 to 3.
Continuing in FIG. 8, which illustrates a fluorescence intensity and an emission wavelength of the water-soluble peptide fluorescence material of formula (III-22) at different pH values. In Experimental Examples 810, 820, 830, 840, 850, 860, 870 and 880, the water-soluble peptide fluorescence material of formula (III-22) is respectively placed in environments having a pH value of 10, 9, 8, 7, 6, 5, 4 and 3 for testing. In Experimental Examples 810 to 850, the water-soluble peptide fluorescence material is respectively placed in environments having the pH value of 10 to 6. […] In addition, the fluorescence intensity of Experimental Example 860 (pH=5) is 90 times of the fluorescence intensity of Experimental Example 810 […], which represents that the water-soluble peptide fluorescence material has obvious light-emitting interval and easily to identify and detect positions of the acidic cells.
FIG. 10 illustrates a fluorescence intensity and an emission wavelength of the water-soluble peptide fluorescence material of formula (III-23) at different pH values. In Experimental Examples 1010, 1020, 1030, 1040, 1050, 1060, 1070 and 1080, the water-soluble peptide fluorescence material of formula (III-23) is respectively placed in environments having a pH value of 10, 9, 8, 7, 6, 5, 4 and 3 for testing. In Experimental Examples 1010 to 1050, the water-soluble peptide fluorescence material is respectively placed in environments having the pH value of 10 to 6. […] The water-soluble peptide fluorescence material not only provides obvious marker, but also achieves the same effect of the fluorescence at a low concentration, and thereby reduces the costs.
FIG. 11 illustrates a fluorescence intensity and an emission wavelength of the water-soluble peptide fluorescence material of formula (III-27) at different pH values. […]

| Structure (SMILES) | color of observed fluorescence (pH 4 and 3) | emission peak (only one remained) (pH 4 and 3) | color of observed fluorescence (pH 10 to 5) | emission peak (first) (pH 10 to 5) | emission peak (other) (pH 10 to 5) | color of fluorescence | emission peak | fluorescence intensity | change of fluorescence intensity (pH decreased to 4 and 3) | change of fluorescence intensity (pH decreased to 5) | ratio of fluorescence intensity Experimental Example 860 (pH=5) to Experimental Example 810 (pH=1) [times] | pH value of the highest fluorescence intensity | change of fluorescence intensity (pH decreased from 4 to 3) | change of fluorescence intensity (pH decreased from 5 to 4) |
| --- | --- | --- | --- | --- | --- | --- | --- | --- | --- | --- | --- | --- | --- | --- |
| O=C(CN1C(=O)c2cccc3cccc(c23)C1=O)NCC(=O)NC(Cc1ccccc1)C(=O)O (stereo not shown) [III-10] | purple | about 400 nm | mixed light of green light and purple light | about 400 nm | about 500 nm | – | – | – | – | – | – | – | – | – |
| O=C(O)CCC(NC(=O)C(CCC(=O)O)NC(=O)C(CCC(=O)O)NC(=O)[C@H](Cc1ccccc1)NC(=O)CN1C(=O)c2cccc3c(N4CCCCC4)ccc(c23)C1=O)C(=O)O (stereo partly shown) [III-27] (X2-F[ξE][ξE][ξE]-OH) | – | – | – | – | – | green | about 525 nm | low fluorescence intensities | significantly increased | significantly increased | – | – | – | – |
| O=C(O)C[C@H](NC(=O)[C@H](CC(=O)O)NC(=O)[C@H](Cc1ccccc1)NC(=O)CN1C(=O)c2cccc3c(N4CCCCC4)ccc(c23)C1=O)C(=O)O [III-22] | – | – | – | – | – | yellow | about 575 nm | low fluorescence intensities | – | significantly increased | 90 | 5 | slightly increased | decreased |
| O=C(O)CCC(NC(=O)[C@H](Cc1ccccc1)NC(=O)CN1C(=O)c2cccc3c(N4CCCCC4)ccc(c23)C1=O)C(=O)O (stereo partly shown) [III-21] | – | – | – | – | – | green | about 550 nm | low fluorescence intensities | – | significantly increased | – | 4 | decreased | further increased |
